From patent US8952024B2, “Herbicidal pyrimidone derivatives” (E I du Pont de Nemours and Company, priority 2009, dated 2015)

Tests used:
Assay in all cases: Test B pre-/postemergence plant response
Assay type in all cases: in vivo
[1] = test system: bermudagrass (Cynodon dactylon); details: for Bermudagrass plant response rating (0 to 100 scale): 62 g ai/ha, 0 is no effect, 13 to 15 days
In short: (§1)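 Pre-em in loam/sand; post-em at 1–4 leaf (2–18 cm) in peat mix. Solvent + surfactant formulation. Greenhouse 13–15 d; visual % control vs untreated, 0–100.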

[2] = test system: morningglory (Ipomoea coccinea); details: for Morningglory plant response rating (0 to 100 scale): 62 g ai/ha, 0 is no effect, 13 to 15 days
In short: as §1

[3] = test system: yellow nutsedge (Cyperus esculentus); details: for Nutsedge, Yellow plant response rating (0 to 100 scale): 62 g ai/ha, 0 is no effect, 13 to 15 days
In short: as §1

soybean (Glycine max) = details: for Soybean plant response rating (0 to 100 scale): 62 g ai/ha, postemergence, 0 is no effect, 100 is complete control, 13 to 15 days; for Plant response rating, Soybean: Postemergence
In short: as §1

[4] = test system: cocklebur (Xanthium strumarium); details: for Cocklebur plant response rating (0 to 100 scale): 62 g ai/ha, 0 is no effect, 13 to 15 days
In short: as §1

kochia (Kochia scoparia) = details: for Kochia plant response rating (0 to 100 scale): 62 g ai/ha, 0 is no effect, 13 to 15 days
In short: as §1

[5] = test system: velvetleaf (Abutilon theophrasti); details: for Velvetleaf plant response rating (0 to 100 scale): 62 g ai/ha, postemergence, 0 is no effect, 100 is complete control, 13 to 15 days; for Plant response rating, Velvetleaf: Postemergence
In short: as §1

[6] = test system: downy bromegrass (Bromus tectorum); details: for Bromegrass, Downy plant response rating (0 to 100 scale): 62 g ai/ha, 0 is no effect, 13 to 15 days
In short: as §1

[7] = test system: large crabgrass (Digitaria sanguinalis); details: for Crabgrass, Large plant response rating (0 to 100 scale): 62 g ai/ha, 0 is no effect, 13 to 15 days
In short: as §1

[8] = test system: wheat (Triticum aestivum); details: for Wheat plant response rating (0 to 100 scale): 62 g ai/ha, postemergence, 0 is no effect, 100 is complete control, 13 to 15 days; for Plant response rating, Wheat: Postemergence
In short: as §1

[9] = test system: woolly cupgrass (Eriochloa villosa); details: for Cupgrass, Woolly plant response rating (0 to 100 scale): 62 g ai/ha, 0 is no effect, 13 to 15 days
In short: as §1

[10] = test system: Italian ryegrass (Lolium multiflorum); details: for Ryegrass, Italian plant response rating (0 to 100 scale): 62 g ai/ha, postemergence, 0 is no effect, 100 is complete control, 13 to 15 days; for Plant response rating, Ryegrass, Italian: Postemergence
In short: as §1

[11] = 31 g ai/ha, postemergence, scale 0 to 100, 0 is no effect, 100 is complete control
[12] = postemergence, 100 is complete control
[13] = Postemergence, 125 g ai/ha, scale 0 to 100 (0 no effect, 100 complete control)
[14] = Postemergence, 250 g ai/ha, scale 0 to 100 (0 no effect, 100 complete control)
[15] = 125 g ai/ha, scale 0 to 100 (0 no effect, 100 complete control)
[16] = 250 g ai/ha, scale 0 to 100 (0 no effect, 100 complete control)
[17] = Postemergence, 31 g ai/ha, 0 to 100 scale (0 no effect, 100 complete control)
[18] = 31 g ai/ha, 0 to 100 scale (0 no effect, 100 complete control)
[19] = 16 g ai/ha, Postemergence, 0 to 100 scale

SMILES: CCCCn1c(-c2cc(F)cc(F)c2)ncc(C(=O)C2=C(O)CCCC2=O)c1=O [Compound 121]
- Plant response rating, Bermudagrass [1, 11]: 95
- Bermudagrass plant response rating (0 to 100 scale) [1, 12]: 98
- Plant response rating, Bermudagrass [1, 13]: 100
- Plant response rating, Bermudagrass [1, 14]: 100
- Plant response rating, Morningglory [2, 11]: 5
- Morningglory plant response rating (0 to 100 scale) [2, 12]: 20
- Plant response rating, Morningglory [2, 13]: 25
- Plant response rating, Morningglory [2, 14]: 45
- Plant response rating, Nutsedge, Yellow [3, 11]: 5
- Nutsedge, Yellow plant response rating (0 to 100 scale) [3, 12]: 45
- Plant response rating, Nutsedge, Yellow [3, 13]: 45
- Plant response rating, Nutsedge, Yellow [3, 14]: 50
- Soybean plant response rating (0 to 100 scale) (soybean (Glycine max)): 90
- Plant response rating, Soybean (soybean (Glycine max); [15]): 95
- Plant response rating, Soybean (soybean (Glycine max); [16]): 100
- Plant response rating, Cocklebur [4, 11]: 40
- Cocklebur plant response rating (0 to 100 scale) [4, 12]: 45
- Plant response rating, Cocklebur [4, 13]: 85
- Plant response rating, Cocklebur [4, 14]: 100
- Plant response rating, Kochia (kochia (Kochia scoparia); [11]): 95
- Kochia plant response rating (0 to 100 scale) (kochia (Kochia scoparia); [12]): 100
- Plant response rating, Kochia (kochia (Kochia scoparia); [14]): 100
- Velvetleaf plant response rating (0 to 100 scale) [5]: 98
- Plant response rating, Velvetleaf [5, 15]: 100
- Plant response rating, Velvetleaf [5, 16]: 100
- Plant response rating, Bromegrass, Downy [6, 11]: 25
- Bromegrass, Downy plant response rating (0 to 100 scale) [6, 12]: 50
- Plant response rating, Bromegrass, Downy [6, 13]: 80
- Plant response rating, Bromegrass, Downy [6, 14]: 90
- Plant response rating, Crabgrass, Large [7, 11]: 85
- Crabgrass, Large plant response rating (0 to 100 scale) [7, 12]: 90
- Plant response rating, Crabgrass, Large [7, 13]: 95
- Plant response rating, Crabgrass, Large [7, 14]: 98
- Wheat plant response rating (0 to 100 scale) [8]: 45
- Plant response rating, Wheat [8, 15]: 45
- Plant response rating, Cupgrass, Woolly [9, 11]: 95
- Cupgrass, Woolly plant response rating (0 to 100 scale) [9, 12]: 100
- Plant response rating, Cupgrass, Woolly [9, 13]: 100
- Plant response rating, Cupgrass, Woolly [9, 14]: 100
- Ryegrass, Italian plant response rating (0 to 100 scale) [10]: 40
- Plant response rating, Ryegrass, Italian [10, 15]: 70
- Plant response rating, Ryegrass, Italian [10, 16]: 75

SMILES: COCCn1c(-c2cccc(F)c2)ncc(C(=O)C2=C(O)CCCC2=O)c1=O [Compound 123]
- Bermudagrass plant response rating (0 to 100 scale) [1, 12]: 85
- Plant response rating, Bermudagrass [1, 17]: 80
- Plant response rating, Bermudagrass [1, 13]: 90
- Plant response rating, Bermudagrass [1, 14]: 98
- Morningglory plant response rating (0 to 100 scale) [2, 12]: 98
- Plant response rating, Morningglory [2, 17]: 70
- Plant response rating, Morningglory [2, 13]: 100
- Plant response rating, Morningglory [2, 14]: 100
- Nutsedge, Yellow plant response rating (0 to 100 scale) [3, 12]: 75
- Plant response rating, Nutsedge, Yellow [3, 17]: 65
- Plant response rating, Nutsedge, Yellow [3, 13]: 75
- Plant response rating, Nutsedge, Yellow [3, 14]: 80
- Soybean plant response rating (0 to 100 scale) (soybean (Glycine max)): 75
- Plant response rating, Soybean (soybean (Glycine max); [18]): 60
- Plant response rating, Soybean (soybean (Glycine max); [15]): 85
- Plant response rating, Soybean (soybean (Glycine max); [16]): 90
- Cocklebur plant response rating (0 to 100 scale) [4, 12]: 80
- Plant response rating, Cocklebur [4, 17]: 65
- Plant response rating, Cocklebur [4, 13]: 100
- Plant response rating, Cocklebur [4, 14]: 100
- Kochia plant response rating (0 to 100 scale) (kochia (Kochia scoparia); [12]): 65
- Plant response rating, Kochia (kochia (Kochia scoparia); [17]): 60
- Plant response rating, Kochia (kochia (Kochia scoparia); [13]): 80
- Plant response rating, Kochia (kochia (Kochia scoparia); [14]): 100
- Velvetleaf plant response rating (0 to 100 scale) [5]: 90
- Plant response rating, Velvetleaf [5, 18]: 80
- Plant response rating, Velvetleaf [5, 15]: 95
- Plant response rating, Velvetleaf [5, 16]: 100
- Bromegrass, Downy plant response rating (0 to 100 scale) [6, 12]: 5
- Plant response rating, Bromegrass, Downy [6, 17]: 0
- Plant response rating, Bromegrass, Downy [6, 13]: 10
- Plant response rating, Bromegrass, Downy [6, 14]: 45
- Crabgrass, Large plant response rating (0 to 100 scale) [7, 12]: 80
- Plant response rating, Crabgrass, Large [7, 17]: 70
- Plant response rating, Crabgrass, Large [7, 13]: 85
- Plant response rating, Crabgrass, Large [7, 14]: 90
- Wheat plant response rating (0 to 100 scale) [8]: 15
- Plant response rating, Wheat [8, 18]: 10
- Plant response rating, Wheat [8, 15]: 15
- Cupgrass, Woolly plant response rating (0 to 100 scale) [9, 12]: 45
- Plant response rating, Cupgrass, Woolly [9, 17]: 25
- Plant response rating, Cupgrass, Woolly [9, 13]: 75
- Plant response rating, Cupgrass, Woolly [9, 14]: 90
- Ryegrass, Italian plant response rating (0 to 100 scale) [10]: 5
- Plant response rating, Ryegrass, Italian [10, 18]: 0
- Plant response rating, Ryegrass, Italian [10, 15]: 5
- Plant response rating, Ryegrass, Italian [10, 16]: 50

SMILES: O=C1CCCC(O)=C1C(=O)c1cnc(-c2ccccc2)n(C2CCCC2)c1=O [Compound 131]
- Plant response rating, Bermudagrass [1, 19]: 60
- Bermudagrass plant response rating (0 to 100 scale) [1, 12]: 75
- Plant response rating, Bermudagrass [1, 17]: 65
- Plant response rating, Bermudagrass [1, 13]: 85
- Plant response rating, Morningglory [2, 19]: 5
- Morningglory plant response rating (0 to 100 scale) [2, 12]: 70
- Plant response rating, Morningglory [2, 17]: 70
- Plant response rating, Morningglory [2, 13]: 75
- Plant response rating, Nutsedge, Yellow [3, 19]: 0
- Nutsedge, Yellow plant response rating (0 to 100 scale) [3, 12]: 25
- Plant response rating, Nutsedge, Yellow [3, 17]: 15
- Plant response rating, Nutsedge, Yellow [3, 13]: 45
- Plant response rating, Soybean (soybean (Glycine max); 16 g ai/ha, 0 to 100 scale): 75
- Soybean plant response rating (0 to 100 scale) (soybean (Glycine max)): 95
- Plant response rating, Soybean (soybean (Glycine max); [18]): 75
- Plant response rating, Soybean (soybean (Glycine max); [15]): 98
- Plant response rating, Cocklebur [4, 19]: 80
- Cocklebur plant response rating (0 to 100 scale) [4, 12]: 98
- Plant response rating, Cocklebur [4, 17]: 95
- Plant response rating, Cocklebur [4, 13]: 100
- Plant response rating, Kochia (kochia (Kochia scoparia); [19]): 20
- Kochia plant response rating (0 to 100 scale) (kochia (Kochia scoparia); [12]): 60
- Plant response rating, Kochia (kochia (Kochia scoparia); [17]): 35
- Plant response rating, Kochia (kochia (Kochia scoparia); [13]): 75
- Plant response rating, Velvetleaf ([5]; 16 g ai/ha, 0 to 100 scale): 70
- Velvetleaf plant response rating (0 to 100 scale) [5]: 85
- Plant response rating, Velvetleaf [5, 18]: 80
- Plant response rating, Velvetleaf [5, 15]: 98
- Plant response rating, Bromegrass, Downy [6, 19]: 0
- Bromegrass, Downy plant response rating (0 to 100 scale) [6, 12]: 0
- Plant response rating, Bromegrass, Downy [6, 17]: 0
- Plant response rating, Bromegrass, Downy [6, 13]: 0
- Plant response rating, Crabgrass, Large [7, 19]: 65
- Crabgrass, Large plant response rating (0 to 100 scale) [7, 12]: 75
- Plant response rating, Crabgrass, Large [7, 17]: 75
- Plant response rating, Crabgrass, Large [7, 13]: 80
- Plant response rating, Wheat ([8]; 16 g ai/ha, 0 to 100 scale): 0
- Wheat plant response rating (0 to 100 scale) [8]: 0
- Plant response rating, Wheat [8, 18]: 0
- Plant response rating, Wheat [8, 15]: 0
- Plant response rating, Cupgrass, Woolly [9, 19]: 10
- Cupgrass, Woolly plant response rating (0 to 100 scale) [9, 12]: 60
- Plant response rating, Cupgrass, Woolly [9, 17]: 50
- Plant response rating, Cupgrass, Woolly [9, 13]: 65
- Plant response rating, Ryegrass, Italian ([10]; 16 g ai/ha, 0 to 100 scale): 0
- Ryegrass, Italian plant response rating (0 to 100 scale) [10]: 0
- Plant response rating, Ryegrass, Italian [10, 18]: 0
- Plant response rating, Ryegrass, Italian [10, 15]: 0
